One molecule from patent publication US5318994A, “N-[2-(7-lower-alkoxynaphth-1-yl)ethyl]benzamides” (Adir et Compagnie, priority 1990, dated 1994) can be followed below.

pKd: −log10 of the molar value.

The target in this assay is melatonin receptors. In words: Test of binding to melatonin receptors. The protocol:
Binding of compounds of the invention to melatonin receptors was carried out according to conventional techniques.

For the molecule `COc1ccc2[nH]cc(CCNC(C)=O)c2c1` [melatonin], the pKd (usually the negative decadic logarithm of the Kd, by convention in mol/L) is 10.20.
